In article PMC7355430, “Imunofan—RDKVYR Peptide—Stimulates Skin Cell Proliferation and Promotes Tissue Repair” (Molecules, 2020):
Peptide text beside a SMILES is read from it.

Legend:
[1] = Stability in human plasma; assay type: in vitro ADME; conditions: human plasma (EDTA)
Protocol: A stability test in plasma was performed as previously described. Blood was collected from healthy anonymous donors and EDTA was then used as an anticoagulant. The plasma was aliquoted and incubated with IM peptide for 1, 2, 3, 6, and 24 h at 37 °C, at a final concentration of 300 µM. The analyses were performed by HPLC applying the conditions specified above.
For calculations, peak areas were compared to a calibration curve calculated by LC solution Software (Shimadzu, Kyoto, Japan).

[2] = tested on: basophils; assay: Basophil activation test (BAT); assay type: cell-based, human; conditions: 0.1 µg/mL, whole blood of healthy volunteers, Flow CAST highsens; cut-off 5%; 7 independent experiments
Protocol: The commercially available test Flow CAST® highsens (Bühlmann Laboratories, Schönenbuch, Switzerland) was used to perform BAT test on blood samples collected from healthy volunteers, who were not suffering from allergy, within 24 h of collection, according to the manufacturer’s protocol. Then, 100 µL of blood was incubated and IM peptide was added to the wells at a final concentration of 0.1 µg/mL. The cells were then stained with fluorochrome-stained monoclonal antibodies (anti-CD63, -CD203c, -CCR3) and incubated for 15 min at 37 °C. Then, erythrocyte lysis was performed, the cells were washed and analyzed by flow cytometry (BD FACSCanto II, San Jose, CA, USA). Each sample was accompanied by its own negative and positive control (anti-FcεRI mAb and fMLP).

[3] = tested on: 46BR.1N fibroblasts; assay: LDH cytotoxicity assay; assay type: cell-based, human; conditions: 50–150 µg/mL, 48 h, serum-free medium; n=16 (Figure S5)
Protocol: (§1) Cell death was quantified by measurement of lactate dehydrogenase activity in cell culture supernatants (Takara, Japan, cat. No. MK401), following the manufacturer’s instructions. Cells were seeded into 96-well plates (BD, cat.no. 353872), at a density of 5000 cells per well, in medium (DMEM) supplemented with 10% FBS. After 24 h, the medium was changed to serum-free medium containing appropriate concentrations of IM peptide. After 48 h of stimulation supernatants were collected for LDH analysis. Cell death was normalized with respect to untreated control (without IM). Non-IM treated cells were used as negative control (0%) and Triton-X 100 (1%) was used as the positive control for maximum LDH release (maximum cytotoxicity, 100%). The assay was performed to IM in concentrations of 50–150 µg/mL.

[4] = tested on: HaCaT keratinocytes; assay: LDH cytotoxicity assay; assay type: cell-based, human; conditions: 50–150 µg/mL, 48 h, serum-free medium; n=16 (Figure S5)
Protocol: as §1

[5] = tested on: adipose-derived stem cells (ASCs); assay: LDH cytotoxicity assay; assay type: cell-based, human; conditions: 50–150 µg/mL, 48 h, serum-free medium; n=12 (Figure S5)
Protocol: as §1

[6] = target: bovine albumin (Bos taurus, UniProt P02769); assay: Affinity test on albumin-Sepharose column; assay type: binding; conditions: ammonium hydrogen carbonate pH 7.4, 2 h, 25 °C, elution 0.1% TFA, ESI-IT-TOF MS of fractions
Protocol: Immobilization of protein in a microcolumn, and affinity tests, were performed as described previously by Spodzieja et al.. The IM peptide was added onto an albumin-Sepharose column equilibrated in ammonium hydrogen carbonate, pH 7.4, and incubated for 2 h at 25 °C with gentle shaking. After 2 h, the column was washed with 100 mL of ammonium hydrogen carbonate, collecting the first and last milliliter of the solution (supernatant and last wash fraction). The albumin-peptide complex was dissociated by incubation for 15 min in 0.1% TFA, with gentle shaking. The procedure was repeated twice, and the elution fraction was collected each time. All fractions were lyophilized and analyzed by mass spectrometry (ESI-IT-TOF, Kyoto, Shimadzu Japan).

[7] = tested on: dendritic cells (DC); assay: Dendritic cell activation in PBMCs, flow cytometry; assay type: cell-based, human; conditions: 0.1 and 1.0 µg/mL, 48 h, active phenotype CD11+, CD80+, CD83+
Protocol: Immunological tests were conducted on human peripheral blood mononuclear cells, isolated from “buffy coats” using a ficoll density gradient (Histopaque, Sigma-Aldrich, St. Louis, MO, USA). Buffy coats for were obtained from blood of healthy anonymous donors of the Regional Center of Blood Donation and Blood Therapy in Gdansk, Poland. After washing in PBS, erythrocyte lysis, and cell counting (cell counter, Bio-Rad), the PBMCs were seeded onto a 24-well culture plate at a density of 10^6 cells/1 mL of RPMI 1640 (Penicillin/Streptomycin, 10% FBS) per well. After cell resting for 24 h, cells were stimulated with IM peptide (0.1 µg/mL and 1.0 µg/mL) for the next 48 h under appropriate conditions (37 °C, 5% CO2). The untreated cells were used as a negative control, whereas cells stimulated with LPS (1 µg/mL) and PHA (2.5 µg/mL) were a positive control. After incubation, the PBMCs were collected, washed with PBS, counted and prepared for flow cytometry analysis. 10^4 cells/100 µl were stained with monoclonal, fluorochrome-conjugated antibodies (anti-CD3, -CD4, -CD8, -CD16, -CD56, -CD25, -CD69, -CD71, -HLA-DR, -CD11c, -CD80, and -CD83) and incubated for 30 min in RT in the dark. Stained cells were analyzed using a flow cytometer (LSRFortessa, BD, USA). All data are presented as percentages due to the application of hospital diagnostic laboratory standards for immune cells analyses.

Sequence of bovine albumin (P02769 25-607): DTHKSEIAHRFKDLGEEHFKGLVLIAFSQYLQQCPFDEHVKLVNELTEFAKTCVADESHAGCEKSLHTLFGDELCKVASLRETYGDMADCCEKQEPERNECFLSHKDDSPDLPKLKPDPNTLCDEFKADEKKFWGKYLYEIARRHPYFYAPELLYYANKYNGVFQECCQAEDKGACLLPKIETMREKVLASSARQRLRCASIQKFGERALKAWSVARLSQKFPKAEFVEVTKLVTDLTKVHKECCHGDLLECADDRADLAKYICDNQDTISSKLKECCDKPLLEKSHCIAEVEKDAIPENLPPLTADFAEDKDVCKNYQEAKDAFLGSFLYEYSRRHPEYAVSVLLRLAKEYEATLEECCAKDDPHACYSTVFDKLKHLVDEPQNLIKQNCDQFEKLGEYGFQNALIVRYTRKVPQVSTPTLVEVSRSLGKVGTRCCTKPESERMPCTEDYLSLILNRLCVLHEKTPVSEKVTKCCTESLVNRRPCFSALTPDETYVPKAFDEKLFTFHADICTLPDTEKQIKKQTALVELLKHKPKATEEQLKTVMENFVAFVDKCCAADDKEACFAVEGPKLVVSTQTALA

**Q.** With CC(C)[C@H](NC(=O)[C@H](CCCCN)NC(=O)[C@H](CC(=O)O)NC(=O)[C@@H](N)CCCNC(=N)N)C(=O)N[C@@H](Cc1ccc(O)cc1)C(=O)N[C@@H](CCCNC(=N)N)C(=O)O [IM, H-Arg-Asp-Lys-Val-Tyr-Arg-OH] (H-RDKVYR-OH) as the compound, how does the “signal of the IM peptide in plasma after 1 h” value ([1]; 300 µM, 37 °C, 1 h, albumins removed with ethanol and centrifugation, HPLC C18, PDA, n=3 (Figure S1)) read?
**A.** no longer seen

**Q.** And the “signal of the IM peptide in plasma at time point 0 h” value ([1]; mixture without incubation, whole sample preparation (ethanol, centrifugation), HPLC (Figure S2))?
**A.** barely any signal of peptide

**Q.** What about the “level of degranulated cells (basophil activation)” value [2] of the same compound?
**A.** below 5%

**Q.** And the “cytotoxicity (LDH release)” value [3]?
**A.** not cytotoxic

**Q.** What about the “cytotoxicity (LDH release)” value [4] of the same compound?
**A.** not cytotoxic

**Q.** What about the “cytotoxicity (LDH release)” value [5] of the same compound?
**A.** not cytotoxic

**Q.** And the interaction with albumin [6]?
**A.** interacted with bovine albumin

**Q.** And the “activation of dendritic cells” value [7]?
**A.** not activated
